Each compound was assayed on hypoxia-inducible endogenous VEGF expression (assay: Hypoxia-inducible endogenous VEGF expression ELISA in HeLa cells, dose-response (EC50, Table 3)). Conditions: Homo sapiens, read-out: ELISA EC50 μM.

Compound | EC50 [µM]
O=C(Oc1ccc(Cl)cc1)N1CCc2c([nH]c3ccc(Cl)cc23)C1c1ccc(OCCN2CCOCC2)cc1 (centres unmarked) [Compound 331] | > 1
CC(=O)N1CCN(CC(O)COc2ccc(C3c4[nH]c5ccc(Cl)cc5c4CCN3C(=O)Oc3ccc(Cl)cc3)cc2)CC1 (centres unmarked) [Compound 415] | < 0.008
O=C(Oc1ccc(Cl)cc1)N1CCc2c([nH]c3ccc(Cl)cc23)C1c1ccc(OCCCN2CCCC2)cc1 (centres unmarked) [Compound 429] | < 0.008
O=C(Oc1ccc(Cl)cc1)N1CCc2c([nH]c3ccc(Cl)cc23)C1c1ccc(OCCCN2CCCCC2)cc1 (centres unmarked) [Compound 433] | < 0.008
O=C(CN1CCOCC1)Nc1ccc(C2c3[nH]c4ccc(Cl)cc4c3CCN2C(=O)Oc2ccc(Cl)cc2)cc1 (centres unmarked) [Compound 454] | 0.008 to 0.04
O=C(Oc1ccc(Cl)cc1)N1CCc2c([nH]c3ccc(Cl)cc23)C1c1ccc(OCC(O)CN2CCCC2)cc1 (centres unmarked) [Compound 462] | 0.008 to 0.04
CN(C)CCCOc1ccc(C2c3[nH]c4ccc(Cl)cc4c3CCN2C(=O)Oc2ccc(Br)cc2)cc1 (centres unmarked) [Compound 468] | 0.008 to 0.04
CN(C)CCCOc1ccc(C2c3[nH]c4ccc(Cl)cc4c3CCN2C(=O)Oc2ccc(Cl)cc2)cc1 (centres unmarked) [Compound 479] | 0.04 to 0.2
CN(C)CC(=O)Nc1ccc(C2c3[nH]c4ccc(Cl)cc4c3CCN2C(=O)Oc2ccc(Cl)cc2)cc1 (centres unmarked) [Compound 491] | 0.04 to 0.2
CN(C)CCCOc1ccc(C2c3[nH]c4ccc(Cl)cc4c3CCN2C(=O)Oc2ccccc2)cc1 (centres unmarked) [Compound 493] | 0.04 to 0.2
COc1ccc(OC(=O)N2CCc3c([nH]c4ccc(Cl)cc34)C2c2ccc(OCCCN(C)C)cc2)cc1 (centres unmarked) [Compound 501] | 0.04 to 0.2
Cc1ccc(OC(=O)N2CCc3c([nH]c4ccc(Cl)cc34)C2c2ccc(OCCCN(C)C)cc2)cc1 (centres unmarked) [Compound 502] | 0.04 to 0.2
O=C1NC2CSC(CCCCC(=O)OCCOc3ccc(C4c5[nH]c6ccc(Cl)cc6c5CCN4C(=O)Oc4ccc(Cl)cc4)cc3)C2N1 (centres unmarked) [Compound 544] | < 0.008
O=C(Oc1ccc(Cl)cc1)Oc1ccc(C2c3[nH]c4ccc(Cl)cc4c3CCN2C(=O)Oc2ccc(Cl)cc2)cc1 (centres unmarked) [Compound 578] | 0.04 to 0.2
CC(=O)N1CCN(CC(O)COc2ccc(C3c4[nH]c5ccc(Cl)cc5c4CCN3C(=O)Oc3ccc(F)cc3)cc2)CC1 (centres unmarked) [Compound 637] | < 0.008
O=C(Oc1ccc(F)cc1)N1CCc2c([nH]c3ccc(Cl)cc23)C1c1ccc(OCC(O)CN2CCOCC2)cc1 (centres unmarked) [Compound 638] | < 0.008
O=C(Oc1ccc(Cl)cc1)N1CCc2c([nH]c3ccc(Cl)cc23)C1c1ccc(OCCCCN2CCCC2)cc1 (centres unmarked) [Compound 698] | 0.008 to 0.04
O=C(Oc1ccc(Cl)cc1)N1CCc2c([nH]c3ccc(Cl)cc23)C1c1ccc(OCCCCNCCO)cc1 (centres unmarked) [Compound 699] | 0.008 to 0.04
CC(C)NCCCCOc1ccc(C2c3[nH]c4ccc(Cl)cc4c3CCN2C(=O)Oc2ccc(Cl)cc2)cc1 (centres unmarked) [Compound 700] | 0.008 to 0.04
COCCCNCCCCOc1ccc(C2c3[nH]c4ccc(Cl)cc4c3CCN2C(=O)Oc2ccc(Cl)cc2)cc1 (centres unmarked) [Compound 701] | 0.008 to 0.04
O=C(Oc1ccc(Cl)cc1)N1CCc2c([nH]c3ccc(Cl)cc23)C1c1ccc(OCCCCN2CCOCC2)cc1 (centres unmarked) [Compound 702] | 0.008 to 0.04
O=C(Oc1ccc(Cl)cc1)N1CCc2c([nH]c3ccc(Cl)cc23)C1c1ccc(OCCCCN2CCCCC2)cc1 (centres unmarked) [Compound 703] | 0.008 to 0.04
CN1CCN(CCCCOc2ccc(C3c4[nH]c5ccc(Cl)cc5c4CCN3C(=O)Oc3ccc(Cl)cc3)cc2)CC1 (centres unmarked) [Compound 704] | 0.04 to 0.2

Compound | EC50 [µM]
O=C(Oc1ccc(F)cc1)N1CCc2c([nH]c3ccc(Cl)cc23)C1c1ccc(OCCCCNCCO)cc1 (centres unmarked) [Compound 735] | < 0.008
O=C(Oc1ccc(F)cc1)N1CCc2c([nH]c3ccc(Cl)cc23)C1c1ccc(OCCCCN2CCCC2)cc1 (centres unmarked) [Compound 736] | < 0.008
COCCCNCCCCOc1ccc(C2c3[nH]c4ccc(Cl)cc4c3CCN2C(=O)Oc2ccc(F)cc2)cc1 (centres unmarked) [Compound 737] | 0.008 to 0.04
O=C(Oc1ccc(F)cc1)N1CCc2c([nH]c3ccc(Cl)cc23)C1c1ccc(OCCCCN2CCOCC2)cc1 (centres unmarked) [Compound 738] | < 0.008
O=C(Oc1ccc(F)cc1)N1CCc2c([nH]c3ccc(Cl)cc23)C1c1ccc(OCCCCN2CCCCC2)cc1 (centres unmarked) [Compound 739] | < 0.008
CN1CCN(CCCCOc2ccc(C3c4[nH]c5ccc(Cl)cc5c4CCN3C(=O)Oc3ccc(F)cc3)cc2)CC1 (centres unmarked) [Compound 740] | 0.04 to 0.2
O=C(Oc1ccc(F)cc1)N1CCc2c([nH]c3ccc(Cl)cc23)C1c1ccc(OCCCCNCCCn2ccnc2)cc1 (centres unmarked) [Compound 741] | 0.04 to 0.2
O=C(Oc1ccc(F)cc1)N1CCc2c([nH]c3ccc(Cl)cc23)C1c1ccc(OCCCCCCNCCO)cc1 (centres unmarked) [Compound 772] | < 0.008
O=C(Oc1ccc(F)cc1)N1CCc2c([nH]c3ccc(Cl)cc23)C1c1ccc(OCCCCCCN2CCCC2)cc1 (centres unmarked) [Compound 773] | < 0.008
CC(C)NCCCCCCOc1ccc(C2c3[nH]c4ccc(Cl)cc4c3CCN2C(=O)Oc2ccc(F)cc2)cc1 (centres unmarked) [Compound 774] | 0.008 to 0.04
COCCCNCCCCCCOc1ccc(C2c3[nH]c4ccc(Cl)cc4c3CCN2C(=O)Oc2ccc(F)cc2)cc1 (centres unmarked) [Compound 775] | < 0.008
O=C(Oc1ccc(F)cc1)N1CCc2c([nH]c3ccc(Cl)cc23)C1c1ccc(OCCCCCCN2CCOCC2)cc1 (centres unmarked) [Compound 776] | < 0.008
O=C(Oc1ccc(F)cc1)N1CCc2c([nH]c3ccc(Cl)cc23)C1c1ccc(OCCCCCCN2CCCCC2)cc1 (centres unmarked) [Compound 777] | < 0.008
CN1CCN(CCCCCCOc2ccc(C3c4[nH]c5ccc(Cl)cc5c4CCN3C(=O)Oc3ccc(F)cc3)cc2)CC1 (centres unmarked) [Compound 778] | < 0.008
O=C(Oc1ccc(F)cc1)N1CCc2c([nH]c3ccc(Cl)cc23)C1c1ccc(OCCCCCCNCCCn2ccnc2)cc1 (centres unmarked) [Compound 779] | 0.04 to 0.2
O=C(Oc1ccc(Cl)cc1)N1CCc2c([nH]c3ccc(Cl)cc23)C1c1ccc(OCCCCCCNCCO)cc1 (centres unmarked) [Compound 782] | < 0.008
O=C(Oc1ccc(Cl)cc1)N1CCc2c([nH]c3ccc(Cl)cc23)C1c1ccc(OCCCCCCN2CCCC2)cc1 (centres unmarked) [Compound 783] | < 0.008
CC(C)NCCCCCCOc1ccc(C2c3[nH]c4ccc(Cl)cc4c3CCN2C(=O)Oc2ccc(Cl)cc2)cc1 (centres unmarked) [Compound 784] | < 0.008
COCCCNCCCCCCOc1ccc(C2c3[nH]c4ccc(Cl)cc4c3CCN2C(=O)Oc2ccc(Cl)cc2)cc1 (centres unmarked) [Compound 785] | < 0.008
O=C(Oc1ccc(Cl)cc1)N1CCc2c([nH]c3ccc(Cl)cc23)C1c1ccc(OCCCCCCN2CCOCC2)cc1 (centres unmarked) [Compound 786] | < 0.008
O=C(Oc1ccc(Cl)cc1)N1CCc2c([nH]c3ccc(Cl)cc23)C1c1ccc(OCCCCCCN2CCCCC2)cc1 (centres unmarked) [Compound 787] | < 0.008
CN1CCN(CCCCCCOc2ccc(C3c4[nH]c5ccc(Cl)cc5c4CCN3C(=O)Oc3ccc(Cl)cc3)cc2)CC1 (centres unmarked) [Compound 788] | 0.008 to 0.04
O=C(Oc1ccc(Cl)cc1)N1CCc2c([nH]c3ccc(Cl)cc23)C1c1ccc(OCCCCCCNCCCn2ccnc2)cc1 (centres unmarked) [Compound 789] | 0.04 to 0.2

Compound | EC50 [µM]
NCC(O)COc1ccc(C2c3[nH]c4ccc(Cl)cc4c3CCN2C(=O)Oc2ccc(Cl)cc2)cc1 (centres unmarked) [Compound 846] | 0.04 to 0.2
CNCC(O)COc1ccc(C2c3[nH]c4ccc(Cl)cc4c3CCN2C(=O)Oc2ccc(Cl)cc2)cc1 (centres unmarked) [Compound 850] | 0.04 to 0.2
O=C(Oc1ccc(Cl)cc1)N1CCc2c([nH]c3ccc(Cl)cc23)C1c1ccc(OCCCN2CCOCC2)cc1 (centres unmarked) [Compound 894] | < 0.008
CC(=O)N1CCN(CCCOc2ccc(C3c4[nH]c5ccc(Cl)cc5c4CCN3C(=O)Oc3ccc(Cl)cc3)cc2)CC1 (centres unmarked) [Compound 903] | < 0.008
O=C(Oc1ccc(Cl)cc1)N1CCc2c([nH]c3ccc(Cl)cc23)C1c1ccc(OCC(O)CN2CCOCC2)cc1 (centres unmarked) [Compound 904] | < 0.008
COCCN(C)CCCOc1ccc(C2c3[nH]c4ccc(Cl)cc4c3CCN2C(=O)Oc2ccc(Cl)cc2)cc1 (centres unmarked) [Compound 908] | < 0.008
COCCN(CCOC)CC(O)COc1ccc(C2c3[nH]c4ccc(Cl)cc4c3CCN2C(=O)Oc2ccc(F)cc2)cc1 (centres unmarked) [Compound 913] | < 0.008
COCCN(CCCOc1ccc(C2c3[nH]c4ccc(Cl)cc4c3CCN2C(=O)Oc2ccc(Cl)cc2)cc1)CCOC (centres unmarked) [Compound 916] | < 0.008
COCCN(CCOC)CC(O)COc1ccc(C2c3[nH]c4ccc(Cl)cc4c3CCN2C(=O)Oc2ccc(Cl)cc2)cc1 (centres unmarked) [Compound 918] | < 0.008
O=C(Oc1ccc(Cl)cc1)N1CCc2c([nH]c3ccc(Cl)cc23)C1c1ccc(OCC(O)CN2CCSCC2)cc1 (centres unmarked) [Compound 923] | < 0.008
O=C(Oc1ccc(F)cc1)N1CCc2c([nH]c3ccc(Cl)cc23)C1c1ccc(OCC(O)CN2CCSCC2)cc1 (centres unmarked) [Compound 925] | < 0.008
CN1CCCC(COc2ccc(C3c4[nH]c5ccc(Cl)cc5c4CCN3C(=O)Oc3ccc(F)cc3)cc2)C1 (centres unmarked) [Compound 932] | < 0.008
O=C(Oc1ccc(Cl)cc1)N1CCc2c([nH]c3ccc(Cl)cc23)C1c1ccc(OCCCN2CCSCC2)cc1 (centres unmarked) [Compound 933] | < 0.008
COCCN(C)CC(O)COc1ccc(C2c3[nH]c4ccc(Cl)cc4c3CCN2C(=O)Oc2ccc(F)cc2)cc1 (centres unmarked) [Compound 936] | < 0.008
CCN(CC)CC(O)COc1ccc(C2c3[nH]c4ccc(Cl)cc4c3CCN2C(=O)Oc2ccc(Cl)cc2)cc1 (centres unmarked) [Compound 938] | < 0.008
O=C(Oc1ccc(Cl)cc1)N1CCc2c([nH]c3ccc(Cl)cc23)C1c1ccc(OCCCN2CCN(CCO)CC2)cc1 (centres unmarked) [Compound 942] | 0.008 to 0.04
CCN(CC)CCCOc1ccc(C2c3[nH]c4ccc(Cl)cc4c3CCN2C(=O)Oc2ccc(Cl)cc2)cc1 (centres unmarked) [Compound 946] | 0.008 to 0.04
Cc1ccc(OC(=O)N2CCc3c([nH]c4ccc(Cl)cc34)C2c2ccc(OCC3CCCN(C)C3)cc2)cc1 (centres unmarked) [Compound 951] | 0.008 to 0.04
CN1CCCC(COc2ccc(C3c4[nH]c5ccc(Cl)cc5c4CCN3C(=O)Oc3ccccc3)cc2)C1 (centres unmarked) [Compound 952] | 0.008 to 0.04
CC(C)NCCCOc1ccc(C2c3[nH]c4ccc(Cl)cc4c3CCN2C(=O)Oc2ccc(Cl)cc2)cc1 (centres unmarked) [Compound 953] | 0.008 to 0.04
O=C(Oc1ccc(Cl)cc1)N1CCc2c([nH]c3ccc(Cl)cc23)C1c1ccc(OCC(O)CN2CCN(CCO)CC2)cc1 (centres unmarked) [Compound 960] | 0.008 to 0.04
CN1CCN(CCCOc2ccc(C3c4[nH]c5ccc(Cl)cc5c4CCN3C(=O)Oc3ccc(Cl)cc3)cc2)CC1 (centres unmarked) [Compound 961] | 0.008 to 0.04
